Values of other authors, collected in patent US20090318627A1, “SOLID PHASE SYNTHESIS OF ACRIDINIUM DERIVATIVES” (Siemens Healthcare Diagnostics Inc., priority 2006, published 2009).

Settings: hydrolysis of ester linkage between acridinium ring and phenol

With “9-carboxyphenyl-N-methylacridinium bromide” as the compound, how does the “hydrolytic stability of the acridinium ester linkage, in words” value read?
The value was “quite unstable”.

With `Cc1cc(C(=O)ON2C(=O)CCC2=O)cc(C)c1OC(=O)c1c2ccccc2[n+](C)c2ccccc12` [DMAE-NHS, 2′,6′-dimethyl-4′-(N-succinimidyloxycarbonyl)phenyl-10-methylacridinium-9-carboxylate] as the compound, how does the “hydrolytic stability of the acridinium ester linkage, in words” value read?
Its value is “significantly more resistant to hydrolysis”.
